Among the data in patent US20230083973A1, “SUBSTITUTED CYCLOPROPYL-2,2'-BIP[…], ANALOGUES THEREOF, AND METHODS USING SAME” (priority 2019, published 2023) are EC50 values, retold here.

This test deals with HBsAg. Put plainly: HBsAg assay: inhibition of HBsAg in HepG2.2.15 cells (chemiluminescence immunoassay of supernatant). As to conditions: Hepatitis B virus, HepG2.2.15, 144 h, read-out: sAg EC50, HepG2.2.15 cells; HBsAg in supernatant at day 6 after exposure to compound; 0.5% DMSO. It counts as cell-based, hepatitis B virus. Here is the method:
Inhibition of HBsAg was determined in HepG2.2.15 cells. Cells were maintained in culture medium containing 10% fetal calf serum, […], Glutamine, penicillin/streptomycin. Cells were seeded in 96-well collagen-coated plate at a density of 30,000 cells/well. Serially diluted compounds were added to cells next day at the final DMSO concentration of 0.5%. Cells were incubated with compounds for 2-3 days, after which medium was removed. Fresh medium containing compounds was added to cells for additional 3-4 days. At day 6 after exposure of compounds, supernatant was collected, the HBsAg immunoassay (microplate-based chemiluminescence immunoassay kits, CLIA, Autobio Diagnosics Co., Zhengzhou, China, Catalog # CL0310-2) was used to determine the level of HBsAg according to manufactory instruction. Dose-response curves were generated and the EC50 value (effective concentrations that achieved 50% inhibitory effect) were determined using XLfit software. In addition, cells were seeded at a density of 5,000 cells/well for determination of cell viability in the presence and absence of compounds by using CellTiter-Glo reagent (Promega).
Table 1 illustrates EC50 values obtained by the HBsAg assay for selected compounds.
Consider `COc1ccc([C@@H]2C[C@H]2c2cnc(-c3ncccn3)nc2)c(F)c1` (relative stereo) [Example 1, trans-5-(2-(2-Fluoro-4-methoxyphenyl)cyclopropyl)-2,2′-bipyrimidine], for which the EC50 was determined as 0.2 µM. Consider `Fc1ccc([C@@H]2C[C@H]2c2ccnc(-c3ncccn3)n2)cc1F` (relative stereo) [Example 4, trans-4-(2-(3,4-Difluorophenyl)cyclopropyl)-2,2′-bipyrimidine], for which the EC50 is 7 µM.

As to `COc1cc(F)ccc1[C@@H]1C[C@H]1c1cnc(-c2ncccn2)nc1` (relative stereo) [Example 7, trans-5-(2-(4-Fluoro-2-methoxyphenyl)cyclopropyl)-2,2′-bipyrimidine], the EC50 was determined as 0.37 µM. Consider `COc1cc([C@@H]2C[C@H]2c2cnc(-c3ncccn3)nc2C)ccc1F` (relative stereo) [Example 16, trans-5-(2-(4-Fluoro-3-methoxyphenyl)cyclopropyl)-4-methyl-2,2′-bipyrimidine], for which the EC50 is 0.75 µM. Turning to `COc1ccc([C@H]2C[C@H]2c2cnc(-c3ncccn3)nc2)c(F)c1` (relative stereo) [Example 73, cis-5-(2-(2-Fluoro-4-methoxyphenyl)cyclopropyl)-2,2′-bipyrimidine], the EC50 came to 9 µM. For the compound `COc1cc([C@@H]2C[C@H]2c2cnc(-c3ncccn3)nc2)ccc1OC(F)(F)F` (relative stereo) [Example 152, trans-5-(2-(3-Methoxy-4-(trifluoromethoxy)phenyl)cyclopropyl)-2,2′-bipyrimidine], the EC50 is 0.7 µM. With `COc1cc([C@@H]2C[C@H]2c2cnc(-c3ncccn3)nc2)ccc1C(F)(F)F` (relative stereo) [Example 153, trans-5-(2-(3-Methoxy-4-(trifluoromethyl)phenyl)cyclopropyl)-2,2′-bipyrimidine], the EC50 was determined as 0.19 µM. On to `Fc1cc([C@@H]2C[C@H]2c2cnc(-c3ncccn3)nc2)cc(F)c1F` (relative stereo) [Example 160, trans-5-(2-(3,4,5-Trifluorophenyl)cyclopropyl)-2,2′-bipyrimidine], for which the EC50 was found to be 0.27 µM.

On to `COc1cc([C@@H]2C[C@H]2c2cnc(-c3ncccn3)nc2)cc(C(F)(F)F)c1` (relative stereo) [Example 163, trans-5-(2-(3-Methoxy-5-(trifluoromethyl)phenyl)cyclopropyl)-2,2′-bipyrimidine], for which the EC50 worked out at 0.14 µM.

`COc1cc(OC(F)(F)F)cc([C@@H]2C[C@H]2c2cnc(-c3ncccn3)nc2)c1` (relative stereo) [Example 164, trans-5-(2-(3-Methoxy-5-(trifluoromethoxy)phenyl)cyclopropyl)-2,2′-bipyrimidine]: the EC50 was determined as 0.48 µM.

Regarding `COc1cc([C@@H]2C[C@H]2c2cnc(-c3ncccn3)nc2)cc(C(F)(F)F)c1F` (relative stereo) [Example 165, trans-5-(2-(4-Fluoro-3-methoxy-5-(trifluoromethyl)phenyl)cyclopropyl)-2,2′-bipyrimidine], the EC50 turned out to be 0.25 µM.

Consider `c1cnc(-c2ncc([C@@H]3C[C@H]3c3cccc4ccccc34)cn2)nc1` (relative stereo) [Example 166, trans-5-(2-(Naphthalen-1-yl)cyclopropyl)-2,2′-bipyrimidine], for which the EC50 worked out at 0.065 µM. On to `c1cnc(-c2ncc([C@@H]3C[C@H]3c3ccc4ccccc4c3)cn2)nc1` (relative stereo) [Example 167, trans-5-(2-(Naphthalen-2-yl)cyclopropyl)-2,2′-bipyrimidine], for which the EC50 was found to be 0.18 µM. Consider `Fc1ccc([C@@H]2C[C@H]2c2cnc(-c3ncccn3)nc2)c2ccccc12` (relative stereo) [Example 168, trans-5-(2-(4-Fluoronaphthalen-1-yl)cyclopropyl)-2,2′-bipyrimidine], for which the EC50 was 0.036 µM. In the case of `Fc1cc([C@@H]2C[C@H]2c2cnc(-c3ncccn3)nc2)cc2ccccc12` (relative stereo) [Example 169, trans-5-(2-(4-Fluoronaphthalen-2-yl)cyclopropyl)-2,2′-bipyrimidine], the EC50 was 0.036 µM. To `c1cnc(-c2ncc([C@@H]3C[C@H]3c3cnc4ccccn34)cn2)nc1` (relative stereo) [Example 170, trans-3-(2-([2,2′-Bipyrimidin]-5-yl)cyclopropyl)imidazo[1,2-a]pyridine] belongs 1 µM. The value for `c1cnc(-c2ncc([C@@H]3C[C@H]3c3cccc4ncccc34)cn2)nc1` (relative stereo) [Example 171, trans-5-(2-([2,2′-Bipyrimidin]-5-yl)cyclopropyl)quinoline] was 0.38 µM.

For the compound `Fc1ccc([C@@H]2C[C@H]2c2cnc(-c3ncccn3)nc2)c2cccnc12` (relative stereo) [Example 172, trans-5-(2-([2,2′-Bipyrimidin]-5-yl)cyclopropyl)-8-fluoroquinoline], the EC50 turned out to be 0.25 µM. On to `COc1ccc([C@@H]2C[C@H]2c2cnc(-c3ncccn3)nc2)c2cccnc12` (relative stereo) [Example 173, trans-5-(2-([2,2′-Bipyrimidin]-5-yl)cyclopropyl)-8-methoxyquinoline], for which the EC50 was 0.54 µM. With `COc1cc([C@@H]2C[C@H]2c2cnc(-c3ccccn3)nc2)cc(F)c1F` (relative stereo) [Example 174, trans-5-(2-(3,4-Difluoro-5-methoxyphenyl)cyclopropyl)-2-(pyridin-2-yl)pyrimidine], the EC50 came to 0.067 µM. With `COc1cc([C@@H]2C[C@H]2c2cnc(-c3ccccn3)nc2)cc(OC)c1F` (relative stereo) [Example 175, trans-5-(2-(4-Fluoro-3,5-dimethoxyphenyl)cyclopropyl)-2-(pyridin-2-yl)pyrimidine], the EC50 was 0.35 µM.

As to `COc1cc([C@@H]2C[C@H]2c2cnc(-c3ccccn3)nc2)cc(OC)c1OC` (relative stereo) [Example 176, trans-2-(Pyridin-2-yl)-5-(2-(3,4,5-trimethoxyphenyl)cyclopropyl)pyrimidine], the concentration for a half-maximal effect (EC50) worked out at 2 µM. Take `COc1cc([C@@H]2C[C@H]2c2cnc(-c3ccncn3)nc2)cc(F)c1F` (relative stereo) [Example 177, trans-5-(2-(3,4-Difluoro-5-methoxyphenyl)cyclopropyl)-2,4′-bipyrimidine]: the EC50 worked out at 0.36 µM. For the compound `COc1cc([C@@H]2C[C@H]2c2cnc(-c3cnccn3)nc2)cc(F)c1F` (relative stereo) [Example 178, trans-5-(2-(3,4-Difluoro-5-methoxyphenyl)cyclopropyl)-2-(pyrazin-2-yl)pyrimidine], the EC50 is 0.46 µM.

Consider `COc1cc([C@@H]2C[C@H]2c2cnc(-c3ncccc3F)nc2)cc(F)c1F` (relative stereo) [Example 179, trans-5-(2-(3,4-Difluoro-5-methoxyphenyl)cyclopropyl)-2-(3-fluoropyridin-2-yl)pyrimidine], for which the EC50 amounted to 0.37 µM. As for `COc1cccnc1-c1ncc([C@@H]2C[C@H]2c2cc(F)c(F)c(OC)c2)cn1` (relative stereo) [Example 180, trans-5-(2-(3,4-Difluoro-5-methoxyphenyl)cyclopropyl)-2-(3-methoxypyridin-2-yl)pyrimidine], the EC50 stood at 1 µM. With `Fc1cc([C@@H]2C[C@H]2c2cnc(-c3ncccn3)nc2)cc(N2CC3(COC3)C2)c1F` (relative stereo) [Example 209, trans-6-(5-(2-([2,2′-Bipyrimidin]-5-yl)cyclopropyl)-2,3-difluorophenyl)-2-oxa-6-azaspiro[3.3]heptane], the EC50 was determined as 0.12 µM.

For orientation: EC50 means the concentration giving half of the maximal effect.
